The results in this text go back to patent US20260297085A1, “1 H-PYRROLO[2,3-B]PYRIDIN-4-YL]-2-OXOPYRROLIDINE-3-CARBONITRILE DERIVATIVES AS TYROSINE KINASE 2 (TYK2) INHIBITORS FOR THE TREATMENT OF INFLAMMATORY DISEASES” (BIOGEN MA INC., priority 2023, published 2026).

Assay [1] deals with T1, human TYK2 kinase domain (JH1) (Homo sapiens, UniProt P29597).
T1 construct: recombinantly generated catalytic kinase (also known as JH1) domain of human JAK1, JAK2, JAK3 and TYK2
T1 sequence (P29597 897-1176 limits assumed): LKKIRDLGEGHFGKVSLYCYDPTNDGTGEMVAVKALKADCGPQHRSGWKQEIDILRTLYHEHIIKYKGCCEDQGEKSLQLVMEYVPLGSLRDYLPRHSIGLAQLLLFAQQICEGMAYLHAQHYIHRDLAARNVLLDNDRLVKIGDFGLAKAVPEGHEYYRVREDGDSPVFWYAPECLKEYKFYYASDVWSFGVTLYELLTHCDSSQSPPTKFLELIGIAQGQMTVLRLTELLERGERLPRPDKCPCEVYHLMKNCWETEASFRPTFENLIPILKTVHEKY
Kind of assay: JH1 biochemical assay for TYK2 (ADP-Glo kinase assay, recombinant JH1 catalytic domain, JAK3-974 peptide, 10 μM ATP). Particulars: JH1 kinase domain, ADP-Glo. The essentials:
(§1)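 Kinase 4 nM JAK1 / 0.2 nM JAK2 / 0.3 nM JAK3 / 2 nM TYK2; 50 μM peptide; 100 min. Unused ATP depleted, ADP→ATP, luciferase luminescence. 11-pt 3-fold series from 10 or 1 μM; normalized, 4PL fit → IC50.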
(In ADP-Glo the light output rises with the ADP produced.)

Assay [2] deals with T2, human JAK3 kinase domain (JH1) (Homo sapiens, UniProt P52333).
T2 construct: recombinantly generated catalytic kinase (also known as JH1) domain of human JAK1, JAK2, JAK3 and TYK2
T2 sequence (P52333 822-1111 limits assumed): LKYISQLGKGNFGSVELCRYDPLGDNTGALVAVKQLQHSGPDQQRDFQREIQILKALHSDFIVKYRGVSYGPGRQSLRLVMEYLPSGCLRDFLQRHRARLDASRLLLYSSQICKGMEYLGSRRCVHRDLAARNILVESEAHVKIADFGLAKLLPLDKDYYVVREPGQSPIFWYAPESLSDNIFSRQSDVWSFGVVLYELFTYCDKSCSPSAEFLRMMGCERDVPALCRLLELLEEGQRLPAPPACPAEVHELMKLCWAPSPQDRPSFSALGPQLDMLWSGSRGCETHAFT
Briefly: JH1 biochemical assay for JAK3 (ADP-Glo kinase assay, recombinant JH1 catalytic domain, JAK3-974 peptide, 4 μM ATP). Particulars: JH1 kinase domain, ADP-Glo. The essentials: as §1

In assay [3] the target is JAK2 kinase activity on STAT5 in TF1 cells (Homo sapiens, UniProt O60674). Briefly: pSTAT5 cell assay (MSD; TF1 cells, 30 ng/mL IL-3 stimulation). The format is cell-based. Particulars: 30 ng/mL IL-3, 15 minutes. The essentials:
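Serum-starved TF1 cells with native JAK2/STAT5 were pretreated 1 h with compound (10-point four-fold dilutions from 10 μM), then stimulated 15 min with 30 ng/mL IL-3. pSTAT5 in lysates quantified by MSD immunoassay; normalized percent activity fitted to a 4-parameter logistic curve for IC50.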

Assay [4] deals with JAK1 kinase activity on STAT3 in TF1 cells (Homo sapiens, UniProt P23458). Briefly: pSTAT3 cell assay (MSD; TF1 cells, 30 ng/mL IL-6 stimulation). Conditions: 30 ng/mL IL-6, 15 minutes. The format is cell-based. The essentials:
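Serum-starved TF1 cells with endogenous JAK1/STAT3 were pretreated 1 h with compound in a 10-point four-fold dilution series from 10 μM, then stimulated with 30 ng/mL IL-6 for 15 min. pSTAT3 in lysates was quantified by MSD immunoassay, and IC50 came from 4-parameter logistic fits.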

Assay [5] addresses T3, human JAK2 kinase domain (JH1) (Homo sapiens, UniProt O60674).
T3 construct: recombinantly generated catalytic kinase (also known as JH1) domain of human JAK1, JAK2, JAK3 and TYK2
Briefly: JH1 biochemical assay for JAK2 (ADP-Glo kinase assay, recombinant JH1 catalytic domain, JAK3-974 peptide, 15 μM ATP). Conditions: JH1 kinase domain, ADP-Glo. The essentials:
as §1

The target of assay [6] is Tyk2 kinase activity on STAT4 in NK92 cells (Homo sapiens, UniProt P29597). Kind of assay: pSTAT4 cell assay (MSD; NK92 cells, 30 ng/mL IL2 stimulation). The assay is classed as cell-based. Conditions: 30 ng/mL IL2, 15 minutes. The essentials:
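NK92, serum-starved; cpd 1 hr, 10-pt 4-fold from 10 μM; IL2 30 ng/mL 15 min; lyse; MSD with anti-STAT4 Abs; IC50 by 4-PL fit.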

The target in assay [7] is T4, human JAK1 kinase domain (JH1) (Homo sapiens, UniProt P23458).
T4 construct: recombinantly generated catalytic kinase (also known as JH1) domain of human JAK1, JAK2, JAK3 and TYK2
T4 sequence (P23458 875-1153 limits assumed): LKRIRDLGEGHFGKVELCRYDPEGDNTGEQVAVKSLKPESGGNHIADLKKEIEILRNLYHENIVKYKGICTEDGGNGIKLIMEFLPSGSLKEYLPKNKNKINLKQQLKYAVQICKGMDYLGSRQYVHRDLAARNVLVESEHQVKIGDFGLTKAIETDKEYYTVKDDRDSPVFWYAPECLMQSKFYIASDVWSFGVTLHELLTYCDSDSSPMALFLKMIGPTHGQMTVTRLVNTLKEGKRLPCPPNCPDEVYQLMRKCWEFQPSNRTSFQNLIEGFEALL
Kind of assay: JH1 biochemical assay for JAK1 (ADP-Glo kinase assay, recombinant JH1 catalytic domain, JAK3-342 peptide, 35 μM ATP). Conditions: JH1 kinase domain, ADP-Glo. The essentials:
as §1

In general, IC50 refers to the midpoint of a concentration-inhibition curve.

Where a name gives a salt, the structure may show the parent alone.

Chain of JAK1 kinase activity on STAT3 in TF1 cells (P23458 whole entry): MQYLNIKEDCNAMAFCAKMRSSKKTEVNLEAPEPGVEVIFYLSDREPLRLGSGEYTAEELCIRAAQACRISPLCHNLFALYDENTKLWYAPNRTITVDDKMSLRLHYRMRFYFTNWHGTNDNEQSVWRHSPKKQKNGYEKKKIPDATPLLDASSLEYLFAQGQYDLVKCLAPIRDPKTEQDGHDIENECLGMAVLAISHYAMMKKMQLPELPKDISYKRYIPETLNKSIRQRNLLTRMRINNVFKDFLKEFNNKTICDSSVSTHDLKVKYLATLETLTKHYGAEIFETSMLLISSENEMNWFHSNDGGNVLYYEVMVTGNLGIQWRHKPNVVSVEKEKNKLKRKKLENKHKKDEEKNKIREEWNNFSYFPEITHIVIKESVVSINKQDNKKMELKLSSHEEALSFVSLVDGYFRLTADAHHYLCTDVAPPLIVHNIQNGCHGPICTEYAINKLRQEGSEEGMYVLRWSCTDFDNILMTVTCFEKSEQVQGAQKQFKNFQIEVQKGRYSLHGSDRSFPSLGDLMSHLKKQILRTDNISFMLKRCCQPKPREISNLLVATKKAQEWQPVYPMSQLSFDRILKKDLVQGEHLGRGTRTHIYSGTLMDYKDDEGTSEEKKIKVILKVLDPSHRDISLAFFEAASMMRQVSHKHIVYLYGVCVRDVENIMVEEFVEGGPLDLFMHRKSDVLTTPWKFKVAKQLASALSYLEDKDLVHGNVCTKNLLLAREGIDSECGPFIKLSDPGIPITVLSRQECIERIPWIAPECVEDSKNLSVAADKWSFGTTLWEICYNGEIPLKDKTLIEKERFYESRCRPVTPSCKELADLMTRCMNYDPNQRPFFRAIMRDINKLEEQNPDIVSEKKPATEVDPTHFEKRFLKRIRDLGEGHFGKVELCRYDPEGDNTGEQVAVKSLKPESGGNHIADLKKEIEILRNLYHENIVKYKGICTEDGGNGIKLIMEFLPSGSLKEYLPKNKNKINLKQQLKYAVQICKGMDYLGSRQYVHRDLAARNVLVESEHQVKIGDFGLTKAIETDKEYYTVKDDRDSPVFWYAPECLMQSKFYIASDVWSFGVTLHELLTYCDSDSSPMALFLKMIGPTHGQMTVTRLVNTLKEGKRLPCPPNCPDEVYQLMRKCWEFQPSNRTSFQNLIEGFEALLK
Chain of Tyk2 kinase activity on STAT4 in NK92 cells (P29597 whole entry): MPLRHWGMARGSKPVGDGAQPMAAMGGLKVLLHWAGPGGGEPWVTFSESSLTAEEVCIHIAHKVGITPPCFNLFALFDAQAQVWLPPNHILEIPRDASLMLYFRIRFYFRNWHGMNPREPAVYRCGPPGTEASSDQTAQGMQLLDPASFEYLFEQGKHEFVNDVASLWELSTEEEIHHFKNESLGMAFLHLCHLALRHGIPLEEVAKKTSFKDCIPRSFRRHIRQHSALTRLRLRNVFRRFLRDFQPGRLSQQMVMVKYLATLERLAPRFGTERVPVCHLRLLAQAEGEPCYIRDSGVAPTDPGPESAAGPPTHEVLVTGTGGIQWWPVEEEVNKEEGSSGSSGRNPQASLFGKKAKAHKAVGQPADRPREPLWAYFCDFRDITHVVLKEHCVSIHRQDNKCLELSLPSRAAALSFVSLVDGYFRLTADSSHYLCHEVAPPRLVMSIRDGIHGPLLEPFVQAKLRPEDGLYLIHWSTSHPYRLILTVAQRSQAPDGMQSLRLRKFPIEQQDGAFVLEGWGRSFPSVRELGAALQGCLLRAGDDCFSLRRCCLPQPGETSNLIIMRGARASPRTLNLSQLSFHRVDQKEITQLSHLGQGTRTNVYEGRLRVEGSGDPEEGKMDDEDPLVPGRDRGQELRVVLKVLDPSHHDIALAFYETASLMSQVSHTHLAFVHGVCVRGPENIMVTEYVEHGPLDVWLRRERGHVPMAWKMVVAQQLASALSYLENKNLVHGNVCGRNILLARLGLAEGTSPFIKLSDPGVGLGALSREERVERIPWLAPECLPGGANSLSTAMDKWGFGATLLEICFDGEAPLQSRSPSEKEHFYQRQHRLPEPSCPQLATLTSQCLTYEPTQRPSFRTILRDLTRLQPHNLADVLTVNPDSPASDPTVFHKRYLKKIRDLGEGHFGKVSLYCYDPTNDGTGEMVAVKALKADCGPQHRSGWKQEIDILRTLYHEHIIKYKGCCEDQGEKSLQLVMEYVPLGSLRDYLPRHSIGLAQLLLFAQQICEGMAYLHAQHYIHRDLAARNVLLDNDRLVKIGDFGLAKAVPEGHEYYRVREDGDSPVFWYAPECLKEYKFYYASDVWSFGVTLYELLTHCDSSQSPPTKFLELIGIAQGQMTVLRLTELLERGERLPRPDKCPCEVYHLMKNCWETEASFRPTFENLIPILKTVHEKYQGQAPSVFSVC
Chain of JAK2 kinase activity on STAT5 in TF1 cells (O60674 whole entry): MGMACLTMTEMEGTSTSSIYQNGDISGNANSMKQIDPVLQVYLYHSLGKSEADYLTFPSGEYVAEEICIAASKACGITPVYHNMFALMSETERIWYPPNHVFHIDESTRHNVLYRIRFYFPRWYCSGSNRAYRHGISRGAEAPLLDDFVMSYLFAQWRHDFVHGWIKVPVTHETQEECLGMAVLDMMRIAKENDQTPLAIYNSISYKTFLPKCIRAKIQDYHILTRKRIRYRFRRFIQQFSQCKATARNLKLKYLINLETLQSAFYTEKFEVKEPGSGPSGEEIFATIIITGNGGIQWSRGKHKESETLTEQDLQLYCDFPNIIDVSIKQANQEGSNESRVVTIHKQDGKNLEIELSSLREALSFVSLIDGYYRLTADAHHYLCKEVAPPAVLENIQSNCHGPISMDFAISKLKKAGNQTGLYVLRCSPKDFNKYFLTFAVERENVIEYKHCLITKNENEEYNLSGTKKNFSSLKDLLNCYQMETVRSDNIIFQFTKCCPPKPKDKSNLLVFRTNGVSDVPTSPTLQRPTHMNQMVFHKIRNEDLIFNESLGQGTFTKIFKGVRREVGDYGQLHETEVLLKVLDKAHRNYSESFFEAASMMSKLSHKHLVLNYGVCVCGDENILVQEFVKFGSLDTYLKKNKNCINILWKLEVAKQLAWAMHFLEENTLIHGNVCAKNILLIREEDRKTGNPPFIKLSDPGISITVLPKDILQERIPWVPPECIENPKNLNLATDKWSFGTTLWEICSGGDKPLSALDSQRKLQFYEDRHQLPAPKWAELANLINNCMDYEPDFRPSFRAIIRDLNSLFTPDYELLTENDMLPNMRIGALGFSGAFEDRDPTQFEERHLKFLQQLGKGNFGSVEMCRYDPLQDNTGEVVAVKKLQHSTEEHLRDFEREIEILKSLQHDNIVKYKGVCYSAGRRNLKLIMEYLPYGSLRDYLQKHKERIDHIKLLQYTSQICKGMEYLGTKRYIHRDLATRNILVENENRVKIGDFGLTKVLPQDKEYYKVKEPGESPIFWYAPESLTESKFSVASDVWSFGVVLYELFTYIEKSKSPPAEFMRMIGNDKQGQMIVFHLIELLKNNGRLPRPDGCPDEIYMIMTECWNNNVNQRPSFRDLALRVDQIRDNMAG
T3 sequence (O60674 849-1124 limits assumed): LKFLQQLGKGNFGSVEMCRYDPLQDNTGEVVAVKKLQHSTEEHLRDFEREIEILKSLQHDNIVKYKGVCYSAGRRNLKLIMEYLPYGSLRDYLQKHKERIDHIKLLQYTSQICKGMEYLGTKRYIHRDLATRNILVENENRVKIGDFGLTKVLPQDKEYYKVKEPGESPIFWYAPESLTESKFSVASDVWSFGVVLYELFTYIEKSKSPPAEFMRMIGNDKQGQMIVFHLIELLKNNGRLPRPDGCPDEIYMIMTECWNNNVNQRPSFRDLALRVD

For the molecule `Cc1ccc(-c2cc3c(N4C[C@@H](C)[C@@](C#N)(C5CC5)C4=O)ccnn3c2)cn1` [Example 67, (3R,4S)-3-cyclopropyl-4-methyl-1-(6-(6-methylpyridin-3-yl)pyrrolo[1,2-b]pyridazin-4-yl)-2-oxopyrrolidine-3-carbonitrile], the IC50 in assay [1] was 5 to 20 nM; in assay [2], 100 to 1000 nM; in assay [3], 5000 to 10000 nM; in assay [4], 1000 to 5000 nM; in assay [5] it was 100 to 1000 nM; in assay [6] it was more than 100 nM. Moreover, the half-inhibitory concentration (IC50) in assay [7] lay in the range of 100 to 1000 nM.
`C[C@@H]1CN(c2ccnn3cc(-c4ccc5cnn(C)c5c4)cc23)C(=O)[C@]1(C#N)C1CC1` [Example 68, (3R,4S)-3-cyclopropyl-4-methyl-1-(6-(1-methyl-1H-indazol-6-yl)pyrrolo[1,2-b]pyridazin-4-yl)-2-oxopyrrolidine-3-carbonitrile]: the IC50 in assay [1] was 5 to 20 nM; in assay [2], 100 to 1000 nM; in assay [3] it was 5000 to 10000 nM; in assay [4] it was 100 to 1000 nM; in assay [5], 100 to 1000 nM; in assay [6], 50 to 100 nM. For the same molecule, the IC50 in assay [7] was less than 100 nM.
Turning to `C[C@@H]1CN(c2ccnn3cc(-c4ccnc(C(F)(F)F)c4)cc23)C(=O)[C@]1(C#N)C1CC1` [Example 69, (3R,4S)-3-cyclopropyl-4-methyl-2-oxo-1-(6-(2-(trifluoromethyl)pyridin-4-yl)pyrrolo[1,2-b]pyridazin-4-yl)pyrrolidine-3-carbonitrile], the IC50 in assay [1] was 5 to 20 nM; in assay [2], 100 to 1000 nM; in assay [3], more than 10000 nM; in assay [4], 5000 to 10000 nM; in assay [5], 1000 to 5000 nM; in assay [6], more than 100 nM. In assay [7], the IC50 lay in the range of 100 to 1000 nM.
In the case of `Cc1cncc(-c2cc3c(N4C[C@@H](C)[C@@](C#N)(C5CC5)C4=O)ccnn3c2)c1` [Example 71, (3R,4S)-3-cyclopropyl-4-methyl-1-(6-(5-methylpyridin-3-yl)pyrrolo[1,2-b]pyridazin-4-yl)-2-oxopyrrolidine-3-carbonitrile], the IC50 in assay [1] is 5 to 20 nM; in assay [2], 100 to 1000 nM; in assay [3], more than 10000 nM; in assay [4] it was 1000 to 5000 nM; in assay [5], 100 to 1000 nM; in assay [6], more than 100 nM. Moreover, the half-inhibitory concentration (IC50) in assay [7] fell in the range of 100 to 1000 nM.
As to `C[C@@H]1CN(c2ccnn3cc(-c4c[nH]c5ncccc45)cc23)C(=O)[C@]1(C#N)C1CC1` [Example 72, (3R,4S)-1-(6-(1H-pyrrolo[2,3-b]pyridin-3-yl)pyrrolo[1,2-b]pyridazin-4-yl)-3-cyclopropyl-4-methyl-2-oxopyrrolidine-3-carbonitrile], the IC50 in assay [1] was 5 to 20 nM; in assay [2], 100 to 1000 nM; in assay [3], 5000 to 10000 nM; in assay [4], 1000 to 5000 nM; in assay [5], 100 to 1000 nM; in assay [6] it was more than 100 nM. Also, in assay [7], the IC50 lay within 100 to 1000 nM.
For the molecule `C[C@@H]1CN(c2ccnn3cc(-c4ccnc(F)c4)cc23)C(=O)[C@]1(C#N)C1CC1` [Example 73, (3R,4S)-3-cyclopropyl-1-(6-(2-fluoropyridin-4-yl)pyrrolo[1,2-b]pyridazin-4-yl)-4-methyl-2-oxopyrrolidine-3-carbonitrile], the IC50 is 5 to 20 nM in assay [1]; 100 to 1000 nM in assay [2]; more than 10000 nM in assay [3]; 1000 to 5000 nM in assay [4]; 100 to 1000 nM in assay [5]; more than 100 nM in assay [6]. Further, the 50% inhibitory concentration (IC50) in assay [7] is 100 to 1000 nM.
In the case of `C[C@@H]1CN(c2ccnn3cc(-c4ccc(C(F)(F)F)nc4)cc23)C(=O)[C@]1(C#N)C1CC1` [Example 74, (3R,4S)-3-cyclopropyl-4-methyl-2-oxo-1-(6-(6-(trifluoromethyl)pyridin-3-yl)pyrrolo[1,2-b]pyridazin-4-yl)pyrrolidine-3-carbonitrile], the IC50 in assay [1] was 5 to 20 nM; in assay [2] it was 100 to 1000 nM; in assay [3], more than 10000 nM; in assay [4] it was 5000 to 10000 nM; in assay [5] it was 1000 to 5000 nM; in assay [6], more than 100 nM. Also, the IC50 in assay [7] fell in the range of 100 to 1000 nM.
As to `C[C@@H]1CN(c2ccnn3cc(-c4cnc5[nH]ncc5c4)cc23)C(=O)[C@]1(C#N)C1CC1` [Example 75, (3R,4S)-1-(6-(1H-pyrazolo[3,4-b]pyridin-5-yl)pyrrolo[1,2-b]pyridazin-4-yl)-3-cyclopropyl-4-methyl-2-oxopyrrolidine-3-carbonitrile], the IC50 was less than 5 nM in assay [1]; 100 to 1000 nM in assay [2]; more than 10000 nM in assay [3]; 1000 to 5000 nM in assay [4]; 100 to 1000 nM in assay [5]; 50 to 100 nM in assay [6]. Moreover, the IC50 in assay [7] is less than 100 nM.
Consider `Cc1cc(-c2cc3c(N4C[C@@H](C)[C@@](C#N)(C5CC5)C4=O)ccnn3c2)ccn1` [Example 77, (3R,4S)-3-cyclopropyl-4-methyl-1-(6-(2-methylpyridin-4-yl)pyrrolo[1,2-b]pyridazin-4-yl)-2-oxopyrrolidine-3-carbonitrile], for which the concentration for half-maximal inhibition (IC50) in assay [1] was less than 5 nM; in assay [2], 100 to 1000 nM; in assay [3], 1000 to 5000 nM; in assay [4], 100 to 1000 nM; in assay [5] it was 100 to 1000 nM; in assay [6], 50 to 100 nM. In addition, the IC50 in assay [7] was less than 100 nM.
With `C[C@@H]1CN(c2ccnn3cc(-c4ccn(C)c(=O)c4)cc23)C(=O)[C@]1(C#N)C1CC1` [Example 79, (3R,4S)-3-cyclopropyl-4-methyl-1-(6-(1-methyl-2-oxo-1,2-dihydropyridin-4-yl)pyrrolo[1,2-b]pyridazin-4-yl)-2-oxopyrrolidine-3-carbonitrile], the IC50 was 5 to 20 nM in assay [1]; 100 to 1000 nM in assay [2]; more than 10000 nM in assay [3]; more than 10000 nM in assay [4]; 100 to 1000 nM in assay [5]; more than 100 nM in assay [6]. Besides, in assay [7], the IC50 was 100 to 1000 nM.
As for `C[C@@H]1CN(c2ccnn3cc(-c4ccc(F)nc4)cc23)C(=O)[C@]1(C#N)C1CC1` [Example 81, (3R,4S)-3-cyclopropyl-1-(6-(6-fluoropyridin-3-yl)pyrrolo[1,2-b]pyridazin-4-yl)-4-methyl-2-oxopyrrolidine-3-carbonitrile], the IC50 in assay [1] is 5 to 20 nM; in assay [2], 100 to 1000 nM; in assay [3], more than 10000 nM; in assay [4] it was 5000 to 10000 nM; in assay [5], 100 to 1000 nM; in assay [6], more than 100 nM. Further, the IC50 in assay [7] was in the range of 100 to 1000 nM.
For the molecule `C[C@@H]1CN(c2ccnn3cc(-c4ccc(=O)n(C)c4)cc23)C(=O)[C@]1(C#N)C1CC1` [Example 83, (3R,4S)-3-cyclopropyl-4-methyl-1-(6-(1-methyl-6-oxo-1,6-dihydropyridin-3-yl)pyrrolo[1,2-b]pyridazin-4-yl)-2-oxopyrrolidine-3-carbonitrile], the IC50 in assay [1] was less than 5 nM; in assay [2] it was 100 to 1000 nM; in assay [3], 5000 to 10000 nM; in assay [4] it was 1000 to 5000 nM; in assay [5], 100 to 1000 nM; in assay [6], 50 to 100 nM. The IC50 in assay [7] is less than 100 nM.
Take `C[C@@H]1CN(c2ccnn3cc(-c4cncc(F)c4)cc23)C(=O)[C@]1(C#N)C1CC1` [Example 84, (3R,4S)-3-cyclopropyl-1-(6-(5-fluoropyridin-3-yl)pyrrolo[1,2-b]pyridazin-4-yl)-4-methyl-2-oxopyrrolidine-3-carbonitrile]: the IC50 in assay [1] was 5 to 20 nM; in assay [2], 100 to 1000 nM; in assay [3], more than 10000 nM; in assay [4] it was 5000 to 10000 nM; in assay [5] it was 1000 to 5000 nM; in assay [6], more than 100 nM. The IC50 in assay [7] was in the range of 100 to 1000 nM.
For `C[C@@H]1CN(c2ccnn3cc(-c4ccc(C#N)nc4)cc23)C(=O)[C@]1(C#N)C1CC1` [Example 86, 5-(4-((3R,4S)-3-cyano-3-cyclopropyl-4-methyl-2-oxopyrrolidin-1-yl)pyrrolo[1,2-b]pyridazin-6-yl)picolinonitrile trifluoroacetate], the IC50 in assay [1] is 5 to 20 nM; in assay [2], 100 to 1000 nM; in assay [3] it was more than 10000 nM; in assay [4] it was 5000 to 10000 nM; in assay [5] it was 1000 to 5000 nM; in assay [6], more than 100 nM. Moreover, the IC50 in assay [7] is 100 to 1000 nM.
